# System: mutant AR-YFP
# Test: YFP fluorescence in reporter cell nuclei at saturating target hormone
# Format: cell-based
# Conditions: absence of urine
# Procedure: For example, YFP fluorescence measured in the cell nuclei of urine-treated reporter cells represents both the effects of target hormone-bound nuclear-translocated mutant AR-YFP, and also the independent effects of urine on the fluorescence properties of YFP. […] Because the effect varies among samples, two aliquots of each sample are required. […] A second sample aliquot is assayed using the methods of the invention. The correction factor is used to subtract the percentage increase from the YFP fluorescence signal measurement of the second aliquot. The corrected YFP fluorescence of the sample then is used to extrapolate the target hormone levels from a standard curve.
structure (smiles),measurement,value
C[C@]12CC[C@H]3[C@@H](CCC4=CC(=O)CC[C@@]43C)[C@@H]1CC[C@@H]2O [testosterone],saturating level (YFP fluorescence in nuclei reaches a maximum),about 10^−7 M
